Here are results for 19 compounds from patent US8415486B2, “IAP inhibitors” (TetraLogic Pharmaceuticals Corp., priority 2009, dated 2013).

The test system of assay [1] is ovarian cancer cell line, SK-OV-3. Description: SK-OV-3 cell growth inhibition (MTT, 72 hrs). Conditions: Homo sapiens, concentration giving 50% cell survival, reported as ranges. It counts as cell-based. The essentials: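 After overnight seeding in McCoy's medium with 10% FBS, SK-OV-3 cells were exposed to compound at 0.003-10 μM for 72 hrs at 37° C. MTT was then added for 3 h, with DMSO solubilization and OD read at 535 nm. CC50 is the concentration giving 50% survival relative to untreated control, reported as ranges.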

Another assay deals with T1, cIAP-1 BIR-3 (Homo sapiens, UniProt Q13490).
T1 construct: 40 nM of the respective IAP BIR3
Description: Fluorescence polarization binding to cIAP-1 BIR-3 with labeled peptide AbuRPF-K(5-Fam)-NH2. Conditions: 40 nM BIR3, 5 nM labeled peptide, reported as ranges, read-out: KD (c-IAP-1 BIR3). The essentials:
(§1)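 Competitive FP: compounds titrated against 5 nM AbuRPF-K(5-Fam)-NH2 tracer and 40 nM BIR3 protein, 15 min at RT in 0.1 M potassium phosphate pH 7.5 with bovine γ-globulin. Polarization read at 485/520 nm; KD reported in ranges A <0.1, B 0.1–1, C >1–10, D >10 μM.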
A general note: In fluorescence polarisation assays a small probe gives low polarisation when free and higher when bound to something large.

The next assay has as its target T2, XIAP BIR-3 (Homo sapiens, UniProt P98170).
T2 construct: 40 nM of the respective IAP BIR3
Nature of the assay: Fluorescence polarization binding to XIAP BIR-3 with labeled peptide AbuRPF-K(5-Fam)-NH2. Conditions: 40 nM BIR3, 5 nM labeled peptide, reported as ranges. In a few lines:
as §1

pKd: −log10 of the molar value. Bounds are passed on as bounds.

The CC50 is the concentration at which the toxic effect on the cells reaches its halfway point. Low values mean greater toxicity to the cells, high ones lower toxicity to the cells. As usually defined, the pKd is the Kd on a negative log10 scale, so that one unit is a factor of ten.

T2 sequence (P98170 241-356 limits assumed): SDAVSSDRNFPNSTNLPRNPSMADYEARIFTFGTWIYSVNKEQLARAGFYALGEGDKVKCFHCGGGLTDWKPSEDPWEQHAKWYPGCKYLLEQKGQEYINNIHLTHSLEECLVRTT
T1 sequence (Q13490 253-363 limits assumed): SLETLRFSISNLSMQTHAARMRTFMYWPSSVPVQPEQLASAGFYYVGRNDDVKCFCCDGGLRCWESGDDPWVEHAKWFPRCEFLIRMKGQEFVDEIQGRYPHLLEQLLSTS

Regarding `CN[C@@H](C)C(=O)N[C@H](C(=O)N1CC[C@@H]2[C@H]1[C@@H](OC(=O)N(C)c1ccccc1)CN2C(=O)NC(C)C)C(C)(C)C` [Example 50, Methyl-phenyl-carbamic acid 4-[3,3-dimethyl-2-(2-methylamino-propionylamino)-butyryl]-1-isopropylcarbamoyl-octahydro-pyrrolo[3,2-b]pyrrol-3-yl ester], the CC50 in assay [1] lay within 100 to 1000 nM. The pKd on cIAP-1 BIR-3 is greater than 7.00; at XIAP BIR-3 it was 6.00 to 7.00.

In assay [1], `CN[C@@H](C)C(=O)N[C@H](C(=O)N1CC[C@@H]2[C@H]1[C@@H](OC(=O)Nc1ccc3ccccc3c1)CN2C(=O)NC(C)C)C(C)(C)C` [Example 51, Naphthalen-2-yl-carbamic acid 4-[3,3-dimethyl-2-(2-methylamino-propionylamino)-butyryl]-1-isopropylcarbamoyl-octahydro-pyrrolo[3,2-b]pyrrol-3-yl ester] yielded a CC50 of 1000 to 10000 nM. In addition, the values for the pKd at cIAP-1 BIR-3 and on XIAP BIR-3 were greater than 7.00 and 6.00 to 7.00, respectively.

`CCNC(=O)O[C@H]1CN(C(=O)NC(C)C)[C@@H]2CCN(C(=O)[C@@H](NC(=O)[C@H](C)NC)C(C)(C)C)[C@H]12` [Example 52, Ethyl-carbamic acid 4-[3,3-dimethyl-2-(2-methylamino-propionylamino)-butyryl]-1-isopropylcarbamoyl-octahydro-pyrrolo[3,2-b]pyrrol-3-yl ester] came in with a CC50 in assay [1] of 1000 to 10000 nM. In addition, the pKd on cIAP-1 BIR-3 is greater than 7.00; on XIAP BIR-3 it was 5.00 to 6.00.

`CCCCNC(=O)O[C@H]1CN(C(=O)NC(C)C)[C@@H]2CCN(C(=O)[C@@H](NC(=O)[C@H](C)NC)C(C)(C)C)[C@H]12` [Example 53, Butyl-carbamic acid 4-[3,3-dimethyl-2-(2-methylamino-propionylamino)-butyryl]-1-isopropylcarbamoyl-octahydro-pyrrolo[3,2-b]pyrrol-3-yl ester]: in assay [1], the CC50 is 100 to 1000 nM. Further, the negative-log Kd (pKd) on cIAP-1 BIR-3 was greater than 7.00; at XIAP BIR-3, 6.00 to 7.00.

In assay [1], `CN[C@@H](C)C(=O)N[C@H](C(=O)N1CC[C@@H]2[C@H]1[C@@H](OC(=O)NC(C)C)CN2C(=O)NC(C)C)C(C)(C)C` [Example 54, Isopropyl-carbamic acid 4-[3,3-dimethyl-2-(2-methylamino-propionylamino)-butyryl]-1-isopropylcarbamoyl-octahydro-pyrrolo[3,2-b]pyrrol-3-yl ester] came in with a CC50 of 1000 to 10000 nM. Further, the pKd at cIAP-1 BIR-3 was greater than 7.00; at XIAP BIR-3, 5.00 to 6.00.

The compound `CN[C@@H](C)C(=O)N[C@H](C(=O)N1CC[C@@H]2[C@H]1[C@@H](OC(=O)NC(C)(C)C)CN2C(=O)NC(C)C)C(C)(C)C` [Example 55, tert-Butyl-carbamic acid 4-[3,3-dimethyl-2-(2-methylamino-propionylamino)-butyryl]-1-isopropylcarbamoyl-octahydro-pyrrolo[3,2-b]pyrrol-3-yl ester] gave a CC50 in assay [1] of 100 to 1000 nM. For the same compound, the results for the pKd on cIAP-1 BIR-3 and on XIAP BIR-3 were greater than 7.00 and 5.00 to 6.00, respectively.

Take `CN[C@@H](C)C(=O)N[C@H](C(=O)N1CC[C@@H]2[C@H]1[C@@H](OC(=O)NC1CCCC1)CN2C(=O)NC(C)C)C(C)(C)C` [Example 56, Cyclopentyl-carbamic acid 4-[3,3-dimethyl-2-(2-methylamino-propionylamino)-butyryl]-1-isopropylcarbamoyl-octahydro-pyrrolo[3,2-b]pyrrol-3-yl ester]: the CC50 in assay [1] lay within 100 to 1000 nM. Further, the pKd on cIAP-1 BIR-3 was greater than 7.00; on XIAP BIR-3 it was 6.00 to 7.00.

`CN[C@@H](C)C(=O)N[C@H](C(=O)N1CC[C@@H]2[C@H]1[C@@H](OC(=O)NC1CCCCC1)CN2C(=O)NC(C)C)C(C)(C)C` [Example 57, Cyclohexyl-carbamic acid 4-[3,3-dimethyl-2-(2-methylamino-propionylamino)-butyryl]-1-isopropylcarbamoyl-octahydro-pyrrolo[3,2-b]pyrrol-3-yl ester] yielded a CC50 in assay [1] of less than 100 nM. Besides, the pKd at cIAP-1 BIR-3 was greater than 7.00; at XIAP BIR-3, 6.00 to 7.00.

In assay [1], `CN[C@@H](C)C(=O)N[C@H](C(=O)N1CC[C@@H]2[C@H]1[C@@H](OC(=O)N1CCCC1)CN2C(=O)NC(C)C)C(C)(C)C` [Example 58, Pyrrolidine-1-carboxylic acid 4-[3,3-dimethyl-2-(2-methylamino-propionylamino)-butyryl]-1-isopropylcarbamoyl-octahydro-pyrrolo[3,2-b]pyrrol-3-yl ester] displayed a CC50 of 1000 to 10000 nM. Also, the pKd at cIAP-1 BIR-3 is 6.00 to 7.00; at XIAP BIR-3, 5.00 to 6.00.

In assay [1], `CN[C@@H](C)C(=O)N[C@H](C(=O)N1CC[C@@H]2[C@H]1[C@@H](OC(=O)N1CCCCC1)CN2C(=O)NC(C)C)C(C)(C)C` [Example 59, Piperidine-1-carboxylic acid 4-[3,3-dimethyl-2-(2-methylamino-propionylamino)-butyryl]-1-isopropylcarbamoyl-octahydro-pyrrolo[3,2-b]pyrrol-3-yl ester] showed a CC50 of 1000 to 10000 nM. For the same compound, the figures for the pKd at cIAP-1 BIR-3 and on XIAP BIR-3 were greater than 7.00 and 5.00 to 6.00, respectively.

Take `CN[C@@H](C)C(=O)N[C@H](C(=O)N1CC[C@@H]2[C@H]1[C@@H](OC(=O)N1CCOCC1)CN2C(=O)NC(C)C)C(C)(C)C` [Example 60, Morpholine-4-carboxylic acid 4-[3,3-dimethyl-2-(2-methylamino-propionylamino)-butyryl]-1-isopropylcarbamoyl-octahydro-pyrrolo[3,2-b]pyrrol-3-yl ester]: the CC50 in assay [1] was 1000 to 10000 nM. Besides, the pKd was greater than 7.00 at cIAP-1 BIR-3 and 5.00 to 6.00 at XIAP BIR-3.

Compound `CN[C@@H](C)C(=O)N[C@H](C(=O)N1CC[C@@H]2[C@H]1[C@@H](O)CN2C(=O)NC(C)C)C(C)(C)C` [Example 61, 4-[3,3-Dimethyl-2-(2-methylamino-propionylamino)-butyryl]-3-hydroxy-hexahydro-pyrrolo[3,2-b]pyrrole-1-carboxylic acid isopropylamide] gave a CC50 in assay [1] of 1000 to 10000 nM. Moreover, the pKd is 6.00 to 7.00 at cIAP-1 BIR-3 and less than 5.00 at XIAP BIR-3.

In assay [1], `CNC(=O)N1C[C@H](COc2ccc(F)c(F)c2)[C@@H]2[C@H]1CCN2C(=O)[C@@H](NC(=O)[C@H](C)NC)C(C)(C)C` [Example 62, 3-(3,4-Difluoro-phenoxymethyl)-4-[3,3-dimethyl-2-(2-methylamino-propionylamino)-butyryl]-hexahydro-pyrrolo[3,2-b]pyrrole-1-carboxylic acid methylamide] came in with a CC50 of less than 100 nM. The pKd at cIAP-1 BIR-3 and on XIAP BIR-3 was greater than 7.00 each time.

`CN[C@@H](C)C(=O)N[C@H](C(=O)N1CC[C@@H]2[C@H]1[C@@H](COc1ccc(F)c(F)c1)CN2S(C)(=O)=O)C(C)(C)C` [Example 63, N-{1-[6-(3,4-Difluoro-phenoxymethyl)-4-methanesulfonyl-hexahydro-pyrrolo[3,2-b]pyrrole-1-carbonyl}-2,2-dimethyl-propyl]-2-methylamino propionamide] gave a CC50 in assay [1] of less than 100 nM. In addition, the pKd at cIAP-1 BIR-3 and on XIAP BIR-3 was greater than 7.00 throughout.

In turn, `CN[C@@H](C)C(=O)N[C@H](C(=O)N1CC[C@H]2NC[C@H](COc3ccc(F)c(F)c3)[C@H]21)C(C)(C)C` [Example 64, N-{1-[6-(3,4-Difluoro-phenoxymethyl)-hexahydro-pyrrolo[3,2-b]pyrrole-1-carbonyl]-2,2-dimethyl-propyl}-2-methylamino propionamide] displayed a CC50 in assay [1] of less than 100 nM. In addition, the pKd at cIAP-1 BIR-3 and at XIAP BIR-3 was greater than 7.00 in each case.

With `CN[C@@H](C)C(=O)N[C@H](C(=O)N1CC[C@@H]2[C@H]1[C@@H](COc1ccc(F)c(F)c1)CN2C(C)=O)C(C)(C)C` [Example 65, N-{1-[4-Acetyl-6-(3,4-difluoro-phenoxymethyl)-hexahydro-pyrrolo[3,2-b]pyrrole-1-carbonyl]-2,2-dimethyl-propyl}-2-methylamino propionamide], the CC50 in assay [1] was less than 100 nM. The pKd on cIAP-1 BIR-3 and on XIAP BIR-3 was greater than 7.00 throughout.

In the case of `CN[C@@H](C)C(=O)N[C@H](C(=O)N1CC[C@@H]2[C@H]1[C@@H](COc1ccc(F)c(F)c1)CN2C(=O)C(C)=O)C(C)(C)C` [Example 66, N-{1-[6-(3,4-Difluoro-phenoxymethyl)-4-(2-oxo-propionyl)-hexahydro-pyrrolo[3,2-b]pyrrole-1-carbonyl]-2,2-dimethyl-propyl}-2-methylamino propionamide], in assay [1], the cytotoxic concentration (CC50) is less than 100 nM. Moreover, the pKd on cIAP-1 BIR-3 and at XIAP BIR-3 was greater than 7.00 in each case.

Compound `CN[C@@H](C)C(=O)N[C@H](C(=O)N1CC[C@@H]2[C@H]1[C@@H](COc1ccc(F)c(F)c1)CN2C(=O)NC(C)C)C(C)(C)C` [Example 67, 3-(3,4-Difluoro-phenoxymethyl)-4-[3.3-dimethyl-2-(2-methylaminopropionylamino)-butyryl]-hexahydro-pyrrolo[3,2-b]pyrrole-1-carboxylic acid isopropylamide] returned a CC50 in assay [1] of less than 100 nM. The pKd at cIAP-1 BIR-3 and at XIAP BIR-3 was greater than 7.00 in each case.

In the case of `CN[C@@H](C)C(=O)N[C@H](C(=O)N1CC[C@@H]2[C@H]1[C@@H](COc1ccc(F)c(F)c1)CN2C(=O)N(C)C)C(C)(C)C` [Example 68, 3-(3,4-Difluoro-phenoxymethyl)-4-[3.3-dimethyl-2-(2-methylaminopropionylamino)-butyryl]-hexahydro-pyrrolo[3,2-b]pyrrole-1-carboxylic acid dimethylamide], the CC50 in assay [1] is less than 100 nM. In addition, the pKd at cIAP-1 BIR-3 and at XIAP BIR-3 was greater than 7.00 in each case.
